Measured values taken from ChEMBL document CHEMBL6153132 (J Med Chem, 2025).
The source made the active and inactive calls. No cut-off for these calls is given here.

What was measured:
[1] = Metabolic stability in human liver microsome assessed as half life; format: ADME, microsomes; conditions: microsomes
[2] = Metabolic stability in human liver microsome assessed as intrinsic clearance; format: ADME; conditions: microsomes
[3] = Lipophilicity, logD of compound at pH 7.4; format: physicochemical; conditions: buffer
[4] = biological target: T1, Interstitial collagenase (Homo sapiens) (UniProt P03956); test: Inhibition of MMP1 (unknown origin) at 10 uM relative to control
T1 sequence (whole entry): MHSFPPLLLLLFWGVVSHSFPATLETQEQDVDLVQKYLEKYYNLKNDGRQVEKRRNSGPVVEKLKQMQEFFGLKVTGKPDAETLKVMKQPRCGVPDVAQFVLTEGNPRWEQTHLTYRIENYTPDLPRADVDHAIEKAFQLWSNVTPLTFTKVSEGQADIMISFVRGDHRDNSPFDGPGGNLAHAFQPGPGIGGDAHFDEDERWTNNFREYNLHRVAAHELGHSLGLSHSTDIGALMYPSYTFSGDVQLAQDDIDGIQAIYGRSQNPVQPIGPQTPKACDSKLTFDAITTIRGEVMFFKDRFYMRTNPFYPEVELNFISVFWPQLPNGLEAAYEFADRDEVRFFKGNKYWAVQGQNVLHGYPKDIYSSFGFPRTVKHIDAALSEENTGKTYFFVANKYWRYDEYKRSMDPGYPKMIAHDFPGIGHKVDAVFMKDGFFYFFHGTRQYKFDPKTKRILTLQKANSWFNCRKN

[5] = biological target: 72 kDa type IV collagenase (Homo sapiens) (UniProt P08253); test: Inhibition of MMP2 (unknown origin) at 10 uM relative to control
[6] = biological target: Stromelysin-1 (Homo sapiens) (UniProt P08254); test: Inhibition of MMP3 (unknown origin) at 10 uM relative to control
[7] = biological target: Matrix metalloproteinase-9 (Homo sapiens) (UniProt P14780); test: Inhibition of MMP9 (unknown origin) at 10 uM relative to control
[8] = biological target: Collagenase 3 (Homo sapiens) (UniProt P45452); test: Inhibition of MMP13 (unknown origin) at 10 uM relative to control
[9] = biological target: Glutaminyl-peptide cyclotransferase (Homo sapiens) (UniProt Q16769); test: Inhibition of glutaminyl cyclase (unknown origin) at 10 uM relative to control
[10] = test system: A2780; test: Induction of cell cycle arrest in human A2780 cells assessed as increase in accumulation of cells at subG1 phase; format: functional, cell-based
[11] = test system: A2780; test: Induction of cell cycle arrest in human A2780 cells assessed as increase in accumulation of cells at subG1 phase 0.5 to 1 uM; format: functional, cell-based; conditions: dose 0.5-1 µM
[12] = test system: CAL-27; test: Induction of DNA damage in human CAL-27 cells assessed as gamma-H2AX accumulation at 0.5 uM by Western blot analysis; format: functional, cell-based
[13] = test system: Cal27CisR; test: Induction of DNA damage in human Cal27CisR cells assessed as gamma-H2AX accumulation at 0.5 uM by Western blot analysis; format: functional, cell-based
[14] = test system: CAL-27; test: Induction of DNA damage in human CAL-27 cells assessed as gamma-H2AX accumulation at 0.5 uM in presence of cisplatin by Western blot analysis; format: functional, cell-based
[15] = test system: Cal27CisR; test: Induction of DNA damage in human Cal27CisR cells assessed as gamma-H2AX accumulation at 0.5 uM in presence of cisplatin by Western blot analysis; format: functional, cell-based
[16] = test system: CAL-27; test: Anti-apoptotic activity in human CAL-27 cells assessed as increase in BCL-2 expression at 0.5 uM incubated for 48 hrs by Western blot analysis; format: functional, cell-based
[17] = test system: CAL-27; test: Anti-apoptotic activity in human CAL-27 cells assessed as increase in BCL-2 expression at 0.5 uM incubated for 48 hrs in presence of cisplatin by Western blot analysis; format: functional, cell-based
[18] = test system: CAL-27; test: Anti-apoptotic activity in human CAL-27 cells assessed as increase in survivin expression at 0.5 uM incubated for 48 hrs by Western blot analysis; format: functional, cell-based
[19] = test system: CAL-27; test: Anti-apoptotic activity in human CAL-27 cells assessed as increase in survivin expression at 0.5 uM incubated for 48 hrs in presence of cisplatin by Western blot analysis; format: functional, cell-based
[20] = test system: CAL-27; test: Induction of apoptosis in human CAL-27 cells assessed as increase in BIM expression at 0.5 uM incubated for 48 hrs by Western blot analysis; format: functional, cell-based
[21] = test system: CAL-27; test: Induction of apoptosis in human CAL-27 cells assessed as increase in BIM expression at 0.5 uM incubated for 48 hrs in presence of cisplatin by Western blot analysis; format: functional, cell-based
[22] = test system: CAL-27; test: cells; conditions: Homo sapiens, CAL-27, 72 h
[23] = cells; conditions: Homo sapiens, Cal27CisR, 72 h
[24] = cells; conditions: Homo sapiens, Cal27CisR
[25] = test system: A2780; test: cells; conditions: Homo sapiens
[26] = test system: A2780cisR; test: cells; conditions: Homo sapiens
[27] = test system: HL-60; test: cells; conditions: Homo sapiens, HL-60, 72 h
Description: Cytotoxicity against human HL-60 cells assessed as cell viability incubated for 72 hrs by MTT assay

Sequence of Matrix metalloproteinase-9 (Homo sapiens) (P14780 whole entry): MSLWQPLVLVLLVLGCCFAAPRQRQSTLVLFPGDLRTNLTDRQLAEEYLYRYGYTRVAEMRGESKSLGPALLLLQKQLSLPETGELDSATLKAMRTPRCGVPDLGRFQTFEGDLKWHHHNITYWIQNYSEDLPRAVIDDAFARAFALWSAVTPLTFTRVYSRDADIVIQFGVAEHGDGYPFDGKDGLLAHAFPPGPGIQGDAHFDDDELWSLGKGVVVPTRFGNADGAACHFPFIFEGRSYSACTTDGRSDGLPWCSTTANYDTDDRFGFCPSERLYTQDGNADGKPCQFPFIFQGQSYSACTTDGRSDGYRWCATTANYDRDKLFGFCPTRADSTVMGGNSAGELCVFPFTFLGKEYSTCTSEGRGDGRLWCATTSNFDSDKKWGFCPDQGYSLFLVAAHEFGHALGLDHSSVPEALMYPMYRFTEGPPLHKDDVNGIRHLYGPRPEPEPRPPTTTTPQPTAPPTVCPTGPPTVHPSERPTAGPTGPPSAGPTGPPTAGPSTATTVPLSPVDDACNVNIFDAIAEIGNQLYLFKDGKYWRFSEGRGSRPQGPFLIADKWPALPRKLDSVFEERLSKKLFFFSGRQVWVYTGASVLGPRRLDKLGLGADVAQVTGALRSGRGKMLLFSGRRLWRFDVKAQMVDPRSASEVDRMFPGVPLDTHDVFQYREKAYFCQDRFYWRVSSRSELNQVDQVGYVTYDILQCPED
Sequence of 72 kDa type IV collagenase (Homo sapiens) (P08253 110-660 limits assumed): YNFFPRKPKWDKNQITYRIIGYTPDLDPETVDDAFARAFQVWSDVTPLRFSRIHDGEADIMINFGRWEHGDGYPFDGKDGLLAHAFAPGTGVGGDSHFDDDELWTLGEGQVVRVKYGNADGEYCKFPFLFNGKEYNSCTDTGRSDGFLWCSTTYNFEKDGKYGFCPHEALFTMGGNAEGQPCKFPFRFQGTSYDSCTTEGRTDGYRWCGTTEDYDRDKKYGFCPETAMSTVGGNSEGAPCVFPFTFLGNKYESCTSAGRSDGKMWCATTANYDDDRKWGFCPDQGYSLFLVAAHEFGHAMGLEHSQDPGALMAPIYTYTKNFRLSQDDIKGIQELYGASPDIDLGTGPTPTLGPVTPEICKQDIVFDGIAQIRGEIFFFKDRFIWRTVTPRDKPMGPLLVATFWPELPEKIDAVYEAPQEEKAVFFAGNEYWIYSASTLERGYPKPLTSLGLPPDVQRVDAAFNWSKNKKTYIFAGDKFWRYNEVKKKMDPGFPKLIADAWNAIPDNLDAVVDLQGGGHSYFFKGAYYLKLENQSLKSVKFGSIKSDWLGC
Sequence of Glutaminyl-peptide cyclotransferase (Homo sapiens) (Q16769 29-361 limits assumed): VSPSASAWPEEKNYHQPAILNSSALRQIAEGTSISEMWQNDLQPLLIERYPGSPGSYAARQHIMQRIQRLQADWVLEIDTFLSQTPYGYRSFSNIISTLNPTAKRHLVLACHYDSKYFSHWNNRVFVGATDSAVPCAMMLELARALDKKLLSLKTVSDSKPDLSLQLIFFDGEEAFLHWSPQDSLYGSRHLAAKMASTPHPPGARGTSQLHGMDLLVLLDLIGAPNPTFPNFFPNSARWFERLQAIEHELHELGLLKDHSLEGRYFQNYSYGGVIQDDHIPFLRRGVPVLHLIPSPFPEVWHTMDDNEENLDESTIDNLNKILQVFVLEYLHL
Sequence of Stromelysin-1 (Homo sapiens) (P08254 100-477 limits assumed): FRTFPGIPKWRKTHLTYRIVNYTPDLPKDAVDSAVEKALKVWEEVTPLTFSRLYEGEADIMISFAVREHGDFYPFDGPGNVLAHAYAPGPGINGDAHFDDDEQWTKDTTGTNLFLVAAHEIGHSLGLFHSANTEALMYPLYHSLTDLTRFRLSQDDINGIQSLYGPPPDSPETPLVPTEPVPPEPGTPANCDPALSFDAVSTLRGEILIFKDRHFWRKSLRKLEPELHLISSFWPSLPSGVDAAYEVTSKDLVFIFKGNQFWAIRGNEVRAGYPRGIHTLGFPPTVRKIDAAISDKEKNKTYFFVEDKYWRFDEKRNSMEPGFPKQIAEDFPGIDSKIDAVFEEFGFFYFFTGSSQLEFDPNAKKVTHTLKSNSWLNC

Compound: CCNNC(=O)c1ccc(CN(CC(=O)NCc2ccccc2)C(=O)c2ccc(N(C)C)cc2)cc1
- t1/2 [1]: 33.93 min
- CLH [2]: 40.9 µL/min/mg
- logD [3]: 2.69
- inhibition [4]: inactive
- inhibition [5]: inactive
- inhibition [6]: inactive
- inhibition [7]: inactive
- inhibition [8]: inactive
- inhibition [9]: inactive
- Activity [10]: Active
- Activity [11]: Active
- Activity [12]: Active
- Activity [13]: Active
- Activity [14]: Active
- Activity [15]: Active
- Activity [16]: Active
- Activity [17]: Active
- Activity [18]: Active
- Activity [19]: Active
- Activity [20]: Active
- Activity [21]: Active
- IC50 [22]: 1470 nM
- IC50 [23]: 2230 nM
- IC50 [24]: 16500 nM
- IC50 [25]: 3500 nM
- IC50 [26]: 16000 nM
- IC50 [27]: 969 nM
